This passage reports inhibition results from US20090093469A1, “Phenylaminopropanol Derivatives and Methods of Their Use” (WYETH, priority 2004, published 2009).

Molecules are shown by their SMILES. Counter-ions that a name gives are not always drawn.

The target of the first experiment is T1, hNET (Homo sapiens, UniProt P23975).
T1 construct: expressed in transfected cells
T1 sequence (P23975 whole entry): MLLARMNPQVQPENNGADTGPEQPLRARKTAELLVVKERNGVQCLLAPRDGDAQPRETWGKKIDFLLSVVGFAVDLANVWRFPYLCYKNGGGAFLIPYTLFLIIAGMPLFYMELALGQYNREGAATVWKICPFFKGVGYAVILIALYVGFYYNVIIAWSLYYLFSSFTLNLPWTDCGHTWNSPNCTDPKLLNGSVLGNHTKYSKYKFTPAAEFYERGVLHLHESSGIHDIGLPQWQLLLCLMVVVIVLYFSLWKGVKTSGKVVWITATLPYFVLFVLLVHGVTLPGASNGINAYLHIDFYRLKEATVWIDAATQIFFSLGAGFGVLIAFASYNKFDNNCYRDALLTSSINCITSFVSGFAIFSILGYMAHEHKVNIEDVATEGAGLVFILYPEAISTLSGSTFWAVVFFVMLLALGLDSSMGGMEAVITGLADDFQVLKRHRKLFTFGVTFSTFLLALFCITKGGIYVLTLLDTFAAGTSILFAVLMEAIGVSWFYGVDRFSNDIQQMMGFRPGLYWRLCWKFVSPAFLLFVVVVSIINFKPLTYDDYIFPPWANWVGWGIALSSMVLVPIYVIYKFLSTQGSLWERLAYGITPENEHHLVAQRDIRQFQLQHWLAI
Briefly: Norepinephrine (NE) uptake assay in MDCK-Net6 cells stably transfected with human hNET. Type of experiment: cell-based. The conditions noted are these: MDCK-Net6, read-out: % Inhibition @ 1 μM (hNET).
In general, inhibition refers to the percentage by which the read-out fell short of the control. Take `Cc1cn([C@@H](c2ccccc2)[C@H](O)CN)c2ccccc12` [Example 178, (1S,2R)-3-amino-1-(3-methyl-1H-indol-1-yl)-1-phenylpropan-2-ol hydrochloride]: the inhibition at 1 µM came out at 69.2%.
Still for that read-out and setting: for `CNC[C@@H](O)[C@H](c1cccc(F)c1)n1ccc2cccc(F)c21` [Example 183, (1S,2R)-1-(7-fluoro-1H-indol-1-yl)-1-(3-fluorophenyl)-3-(methylamino)propan-2-ol hydrochloride] the value was 100%; for `CNC[C@@H](O)[C@H](c1cccc(F)c1)n1ccc2c(F)cccc21` [Example 184, (1S,2R)-1-(4-fluoro-1H-indol-1-yl)-1-(3-fluorophenyl)-3-(methylamino)propan-2-ol hydrochloride], 99.7%.
Take `CNC[C@@H](O)[C@H](c1ccccc1)n1c(=O)n(C(C)(C)C)c2ccccc21` [Example 192, 1-tert-Butyl-3-(2-hydroxy-3-methylamino-1-phenyl-propyl)-1,3-dihydro-benzoimidazol-2-one hydrochloride]: the inhibition at 1 µM was 54.6%.
For `CCCn1c(=O)n([C@@H](c2ccccc2)[C@H](O)CNC)c2ccccc21` [Example 193, 1-[(1S,2R)-2-hydroxy-3-(methylamino)-1-phenylpropyl]-3-propyl-1,3-dihydro-2H-benzimidazol-2-one hydrochloride], the inhibition at 1 µM is 98.4%.

Staying with this experiment, now noted: test compound 1 μM; [3H]NE uptake, MDCK-Net6 cells; read-out: % Inhibition @ 1 μM (hNET).
For `CNC[C@@H](O)[C@H](c1cccc(F)c1)n1cc(-c2ccc(C(C)(C)C)cc2)c2ccccc21` [Example 171, (1S,2R)-1-[3-(4-tert-butylphenyl)-1H-indol-1-yl]-1-(3-fluorophenyl)-3-(methylamino)propan-2-ol hydrochloride], the inhibition at 1 µM is 98.3%.
Still for that read-out and setting: as for `CNC[C@@H](O)[C@H](c1cccc(F)c1)n1cc(-c2cccc(OC)c2)c2ccccc21` [Example 172, (1S,2R)-1-(3-fluorophenyl)-1-[3-(3-methoxyphenyl)-1H-indol-1-yl]-3-(methylamino)propan-2-ol hydrochloride], the figure is 88%; as for `CNC[C@@H](O)[C@H](c1cccc(F)c1)n1cc(-c2ccc(C(F)(F)F)cc2)c2ccccc21` [Example 173, (1S,2R)-1-(3-fluorophenyl)-3-(methylamino)-1-{3-[4-(trifluoromethyl)phenyl]-1H-indol-1-yl}propan-2-ol hydrochloride], 67.5%.
With `CNC[C@@H](O)[C@H](c1cc(F)cc(F)c1)N1CCc2ccc(F)cc21` [Example 174, (1S,2R)-1-(3,5-difluorophenyl)-1-(6-fluoro-2,3-dihydro-1H-indol-1-yl)-3-(methylamino)propan-2-ol hydrochloride], the inhibition at 1 µM stood at 99.1%.
Take `CNC[C@@H](O)[C@H](c1cccc(F)c1)n1cc(-c2ccccc2C(F)(F)F)c2ccccc21` [Example 175, (1S,2R)-1-(3-fluorophenyl)-3-(methylamino)-1-{3-[2-(trifluoromethyl)phenyl]-1H-indol-1-yl}propan-2-ol hydrochloride]: the inhibition at 1 µM was found to be 99.6%.
On the same count and under the same terms, as for `CNC[C@@H](O)[C@H](c1cccc(F)c1)n1cc(-c2ccccc2OC)c2ccccc21` [Example 176, (1S,2R)-1-(3-fluorophenyl)-1-[3-(2-methoxyphenyl)-1H-indol-1-yl]-3-(methylamino)propan-2-ol hydrochloride], the figure is 100%; as for `CNC[C@@H](O)[C@H](c1cccc(F)c1)n1cc(-c2cccc(C(F)(F)F)c2)c2ccccc21` [Example 177, (1S,2R)-1-(3-fluorophenyl)-3-(methylamino)-1-{3-[3-(trifluoromethyl)phenyl]-1H-indol-1-yl}propan-2-ol hydrochloride], 29.9%.
In the case of `CNC[C@@H](O)[C@H](c1ccccc1)n1cc(C)c2cccc(F)c21` [Example 179, (1S,2R)-1-(7-fluoro-3-methyl-1H-indol-1-yl)-3-(methylamino)-1-phenylpropan-2-ol hydrochloride], the inhibition at 1 µM worked out at 99.8%.
The same measure, in the same setting: for `Cc1cn([C@@H](c2ccccc2)[C@H](O)CN)c2c(F)cccc12` [Example 180, (1S,2R)-3-amino-1-(7-fluoro-3-methyl-1H-indol-1-yl)-1-phenylpropan-2-ol hydrochloride] the value was 70.4%; for `CNC[C@@H](O)[C@H](c1ccccc1)n1ccc2cccc(F)c21` [Example 181, (1S,2R)-1-(7-fluoro-1H-indol-1-yl)-3-(methylamino)-1-phenylpropan-2-ol hydrochloride], 96.9%.
Take `CNC[C@@H](O)[C@H](c1ccccc1)n1ccc2c(F)cccc21` [Example 182, (1S,2R)-1-(4-fluoro-1H-indol-1-yl)-3-(methylamino)-1-phenylpropan-2-ol hydrochloride]: the inhibition at 1 µM stood at 97.1%.
Consider `CNC[C@@H](O)[C@H](c1cccc(F)c1)n1ccc2cc(C(F)(F)F)ccc21` [Example 185, (1S,2R)-1-(3-fluorophenyl)-3-(methylamino)-1-[5-(trifluoromethyl)-1H-indol-1-yl]propan-2-ol hydrochloride], for which the inhibition at 1 µM amounted to 80.8%.
As to `CNC[C@@H](O)[C@H](c1ccccc1)n1ccc2ccc(F)cc21` [Example 186, (1S,2R)-1-(6-fluoro-1H-indol-1-yl)-3-(methylamino)-1-phenylpropan-2-ol hydrochloride], the inhibition at 1 µM came to 96.6%.
Same read-out and setting: for `CNC[C@@H](O)[C@H](c1ccccc1)n1ccc2cc(C(F)(F)F)ccc21` [Example 188, (1S,2R)-3-(methylamino)-1-phenyl-1-[5-(trifluoromethyl)-1H-indol-1-yl]propan-2-ol hydrochloride] the value was 71.6%.
The same measure, in the same setting: as for `CNC[C@@H](O)[C@H](c1cccc(F)c1)n1cc(C(C)(C)C)c2ccccc21` [Example 189, (1S,2R)-1-(3-tert-butyl-1H-indol-1-yl)-1-(3-fluorophenyl)-3-(methylamino)propan-2-ol], the figure is 99.3%; as for `CNC[C@@](C)(O)[C@H](c1ccccc1)n1ccc2ccccc21` [Example 190, (1S,2R)-1-(1H-indol-1-yl)-2-methyl-3-(methylamino)-1-phenylpropan-2-ol hydrochloride], 53.7%.
Consider `CNC[C@@H](O)[C@](C)(c1ccccc1)n1ccc2ccccc21` [Example 191, (2R,3S)-3-(1H-indol-1-yl)-1-(methylamino)-3-phenylbutan-2-ol hydrochloride], for which the inhibition at 1 µM stood at 63.9%.
With `CNC[C@@H](O)[C@H](c1ccccc1)N1C(=O)C(C)(C)c2cc(Br)ccc21` [Example 194, 5-bromo-1-[(1S,2R)-2-hydroxy-3-(methylamino)-1-phenylpropyl]-3,3-dimethyl-1,3-dihydro-2H-indol-2-one hydrochloride], the inhibition at 1 µM came to 79%.
Still for that read-out and setting: for `CNC[C@@H](O)[C@H](c1ccccc1)N1C(=O)C(C)(C)c2ccc(F)cc21` [Example 195, 6-fluoro-1-[(1S,2R)-2-hydroxy-3-(methylamino)-1-phenylpropyl]-3,3-dimethyl-1,3-dihydro-2H-indol-2-one hydrochloride] the value was 91%.
The same measure, in the same setting: for `CNC[C@@H](O)[C@H](c1ccccc1)N1C(=O)C(C)(C)c2c(F)cccc21` [Example 196, 4-fluoro-1-[(1S,2R)-2-hydroxy-3-(methylamino)-1-phenylpropyl]-3,3-dimethyl-1,3-dihydro-2H-indol-2-one hydrochloride] the value was 94.6%.
